Test results as given in patent US7547699B2, “Tetracyclic 6 azapyrazinoindolines as 5HT2C receptor agonists for obesity” (Hoffmann-La Roche Inc., priority 2005, dated 2009).

Key:
[1] = molecular target: T1, 5-HT2A receptor (Homo sapiens, UniProt P28223); assay: Functional activity, FLIPR calcium assay in CHO cells expressing human 5-HT2A; format: cell-based; parameters: expressed in transfected cells; host or cells: CHO cells; settings: for EC50: CHO cells, FLIPR, Fluo-3-AM, read-out: h5-HT2A EC50; for h5-HT2A Rel. Eff.: maximum fluorescent signal relative to 10 μM 5-HT (defined as 100%)
Protocol: (§1) The functional activity of compounds of formula (I) was assayed using a Fluorimetric Imaging Plate Reader (FLIPR). CHO cells expressing the human 5-HT2C or human 5-HT2A receptors were counted and plated into standard 96 well microtitre plates on the day before testing to give a confluent monolayer. The cells were then loaded with the calcium sensitive dye, Fluo-3-AM. Unincorporated dye was removed using an automated cell washer to leave a total volume of 100 μL/well of assay buffer (Hanks balanced salt solution containing 20 mM Hepes and 2.5 mM probenecid). The drug (dissolved in 50 μL of the assay buffer) was added at a rate of 70 μL/sec to each well of the FLIPR 96 well plate during fluorescence measurements. The measurements were taken at 1 sec intervals and the maximum fluorescent signal was measured (approx 10-15 secs after drug addition) and compared with the response produced by 10 μM 5-HT (defined as 100%) to which it was expressed as a percentage response (relative efficacy). Dose response curves were constructed using Graphpad Prism (Graph Software Inc.).

[2] = molecular target: T2, 5-HT2C receptor (Homo sapiens, UniProt P28335); assay: Functional activity, FLIPR calcium assay in CHO cells expressing human 5-HT2C; format: cell-based; parameters: expressed in transfected cells; host or cells: CHO cells; settings: for EC50: CHO cells, FLIPR, Fluo-3-AM, read-out: h5-HT2C EC50; for h5-HT2C Rel. Eff.: maximum fluorescent signal relative to 10 μM 5-HT (defined as 100%)
T2 sequence (P28335 33-458): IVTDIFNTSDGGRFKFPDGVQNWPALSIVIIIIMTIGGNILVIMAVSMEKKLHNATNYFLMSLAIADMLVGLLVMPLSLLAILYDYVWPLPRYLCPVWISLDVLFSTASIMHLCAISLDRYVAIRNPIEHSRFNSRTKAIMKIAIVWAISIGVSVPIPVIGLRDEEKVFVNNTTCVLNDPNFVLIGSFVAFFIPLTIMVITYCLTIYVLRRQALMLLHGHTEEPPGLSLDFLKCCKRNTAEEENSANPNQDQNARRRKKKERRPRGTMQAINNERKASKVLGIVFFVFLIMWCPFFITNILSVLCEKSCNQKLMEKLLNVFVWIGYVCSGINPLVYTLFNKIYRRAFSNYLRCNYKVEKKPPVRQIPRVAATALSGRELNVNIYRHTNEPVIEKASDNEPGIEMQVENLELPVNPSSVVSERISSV
Protocol: as §1

[3] = molecular target: T2, 5-HT2C receptor; assay: Binding to 5-HT2C receptor, [3H]-5-HT radioligand, Method (a); parameters: expressed in transfected cells; host or cells: CHO cell line; settings: 5-HT2C receptors in a CHO cell line, read-out: Method (a) Ki (2C)
Protocol: (§2) The binding of compounds of formula (I) to serotonin receptors was determined in vitro by standard methods. The preparations were investigated in accordance with the assays given hereinafter.
Method (a): For the binding to the 5-HT2C receptor the 5-HT2C receptors were radiolabeled with [^3H]-5-HT. The affinity of the compounds for 5-HT2C receptors in a CHO cell line was determined according to the procedure of D. Hoyer, G. Engel and H. O. Kalkman, European J. Pharmacol., 1985, 118, 13-23.

[4] = molecular target: T3, human 5-HT2B receptors (Homo sapiens, UniProt P41595); assay: Binding to 5-HT2B receptor, [3H]-5-HT radioligand, Method (b); settings: human 5-HT2B receptors in a CHO cell line, read-out: Method (b) Ki (2B)
T3 construct: expressed in transfected cells; host or cells: CHO cell line
Protocol: as §2
Method (b): For the binding to the 5-HT2B receptor the 5-HT2B receptors were radiolabeled with [^3H]-5-HT. The affinity of the compounds for human 5-HT2B receptors in a CHO cell line was determined according to the procedure of K. Schmuck, C. Ullmer, P. Engels and H. Lubbert, FEBS Lett., 1994, 342, 85-90.

[5] = molecular target: T1, 5-HT2A receptor; assay: Binding to 5-HT2A receptor, [125I]-DOI radioligand, Method (c); parameters: expressed in transfected cells; host or cells: CHO cell line; settings: 5-HT2A receptors in a CHO cell line, read-out: Method (c) Ki (2A)
Protocol: as §2
Method (c): For the binding to the 5-HT2A receptor the 5-HT2A receptors were radiolabeled with [^125I]-DOI. The affinity of the compounds for 5-HT2A receptors in a CHO cell line was determined according to the procedure of D. J. McKenna and S. J. Peroutka, J. Neurosci., 1989, 9, 3482-90.

T3 sequence (P41595 whole entry): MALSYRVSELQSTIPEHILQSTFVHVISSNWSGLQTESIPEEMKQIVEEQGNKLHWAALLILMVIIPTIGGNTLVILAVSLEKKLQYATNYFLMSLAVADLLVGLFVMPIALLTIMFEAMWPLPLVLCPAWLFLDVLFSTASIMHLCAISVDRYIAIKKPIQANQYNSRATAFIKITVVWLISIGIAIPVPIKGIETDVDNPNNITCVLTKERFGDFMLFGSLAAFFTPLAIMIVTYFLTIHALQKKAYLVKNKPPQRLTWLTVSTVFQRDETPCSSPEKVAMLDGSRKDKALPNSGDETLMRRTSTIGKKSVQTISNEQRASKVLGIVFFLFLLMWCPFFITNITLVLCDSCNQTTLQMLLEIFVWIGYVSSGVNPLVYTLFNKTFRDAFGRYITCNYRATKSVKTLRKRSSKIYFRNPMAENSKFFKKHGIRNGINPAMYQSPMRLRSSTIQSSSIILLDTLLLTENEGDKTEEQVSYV
T1 sequence (P28223 whole entry): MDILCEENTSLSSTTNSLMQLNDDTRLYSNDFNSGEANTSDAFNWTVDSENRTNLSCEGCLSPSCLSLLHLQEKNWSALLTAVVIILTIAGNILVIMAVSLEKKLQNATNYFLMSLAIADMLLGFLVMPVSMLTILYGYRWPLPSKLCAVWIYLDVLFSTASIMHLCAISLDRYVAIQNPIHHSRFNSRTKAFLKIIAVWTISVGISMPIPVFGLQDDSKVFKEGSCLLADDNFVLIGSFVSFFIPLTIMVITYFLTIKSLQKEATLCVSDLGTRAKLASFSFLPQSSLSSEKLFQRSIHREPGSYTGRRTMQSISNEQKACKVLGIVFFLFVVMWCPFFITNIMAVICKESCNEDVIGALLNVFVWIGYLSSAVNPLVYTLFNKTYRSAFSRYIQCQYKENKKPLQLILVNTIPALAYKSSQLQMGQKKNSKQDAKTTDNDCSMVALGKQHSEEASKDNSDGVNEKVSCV

melting point	Structure (SMILES)	EC50 [1]	h5-HT2A Rel. Eff. [1]	EC50 [2]	h5-HT2C Rel. Eff. [2]	Ki [3]	Ki [4]	Ki [5]
118 to 119 °C	Cc1c2c(nc3c1C[C@@H]1CNC[C@@H](C)N31)COC2	–	–	–	–	–	–	–
90 to 91 °C	C[C@@H]1OCc2cc3c(nc21)N1[C@@H](CNC[C@H]1C)C3	–	–	–	–	–	–	–
–	C[C@@H]1CNC[C@H]2Cc3cc4c(nc3N21)[C@H](C1CC1)OC4 [Example 17, (3S,5R,8aR)-3-Cyclopropyl-5-methyl-1,3,5,6,7,8,8a,9-octahydro-2-oxa-4,4b,7-triaza-cyclopehta[b]fluorene]	534 nM	35%	12.4 nM	95%	23.4 nM	760 nM	635 nM
–	C[C@@H]1CNC[C@H]2Cc3cc4c(nc3N21)C(C)(C)OC4 [Example 19, (5R,8aR)-3,3,5-Trimethyl-1,3,5,6,7,8,8a,9-octahydro-2-oxa-4,4b,7-triaza-cyclopenta[b]fluorene]	> 1000 nM	3%	8.4 nM	87%	5.5 nM	26.3 nM	80.2 nM
–	C[C@@H]1CNC[C@H]2Cc3cc4c(nc3N21)CSC4 [Example 33, (5R,8aR)-5-Methyl-1,3,5,6,7,8,8a,9-octahydro-2-thia-4,4b,7-triaza-cyclopenta[b]fluorene]	–	–	–	–	5.3 nM	21.1 nM	98.9 nM
